IC50 and EC50 data for 15 compounds are collected here from patent US8513233B2, “Pyrimidinyl-propionic acid derivatives and their use as PPAR agonists” (Shanghai Institute of Materia Medica, CAS, priority 2007, dated 2013).

A value given as a limit tells only on which side of the number the result lay.

Common to all, as to format: cell-based
The test system of one assay is SPC-A1. Put plainly: Growth inhibition, modified MTT assay, SPC-A1. Particulars: SPCA1, mean of 3 independent tests. On the procedure:
(§1) The growth inhibition was evaluated by the modified MTT assay. Briefly, the cells were seeded at 1×10^4 cells/well in 96-well plates (Falcon, Calif., USA), and incubated for 24 h in […] culture media with 10% FCS. The media were then replaced by serum-free medium. After 24 h, the media were placed in triplicate with grade concentrations of compounds. As controls, the cells were cultivated in DMEM/F12 only. The cells were then treated by MTT (Sigma, USA) assay, […] (5 g/L) for 4 h. After the removal of the supernatant, the purple-blue sediment was dissolved in 100 μL/well DMSO, and the optical densities were read on the multi-well scanning spectrophotometer (Labsystems Dragon, Finland) at 492 nm (A492). The growth inhibition rate (GIR) of the treated cells was calculated using Equation: GIR(%)={1−[A490/A490(control)]}×100% The results were also converted to IC50 (the compound concentration required for 50% growth inhibition of tumor cells), which were calculated by using the sigmoidal fitting model by the Origin 7.0 software (OriginLab, Northampton, Mass., USA). The mean IC50 was determined from the results of 3 independent tests.

For the next assay, the system named is T24. Put plainly: Growth inhibition, modified MTT assay, T24. Particulars: Homo sapiens, T-24, mean of 3 independent tests. On the procedure:
as §1
On the technique in general: Tetrazolium assays rely on reduction of a dye to a coloured formazan, in cell work by metabolically active cells.

The next assay has as its system HepG2. Nature of the assay: Growth inhibition, modified MTT assay, HepG2. The note with it: Homo sapiens, mean of 3 independent tests. As to the method:
as §1

The subject of another assay is MCF-7. Nature of the assay: Growth inhibition, modified MTT assay, MCF-7. Particulars: Homo sapiens, MCF7; MCF-7, MTT, mean of 3 independent tests. On the procedure:
as §1

The target in the next assay is T1, PPAR-γ (Homo sapiens, UniProt P37231).
T1 construct: expressed in transfected cells; host or cells: U2OS cells, transiently transfected with pcDNA3.1 expression vectors (FuGene6)
T1 sequence (P37231 1-505): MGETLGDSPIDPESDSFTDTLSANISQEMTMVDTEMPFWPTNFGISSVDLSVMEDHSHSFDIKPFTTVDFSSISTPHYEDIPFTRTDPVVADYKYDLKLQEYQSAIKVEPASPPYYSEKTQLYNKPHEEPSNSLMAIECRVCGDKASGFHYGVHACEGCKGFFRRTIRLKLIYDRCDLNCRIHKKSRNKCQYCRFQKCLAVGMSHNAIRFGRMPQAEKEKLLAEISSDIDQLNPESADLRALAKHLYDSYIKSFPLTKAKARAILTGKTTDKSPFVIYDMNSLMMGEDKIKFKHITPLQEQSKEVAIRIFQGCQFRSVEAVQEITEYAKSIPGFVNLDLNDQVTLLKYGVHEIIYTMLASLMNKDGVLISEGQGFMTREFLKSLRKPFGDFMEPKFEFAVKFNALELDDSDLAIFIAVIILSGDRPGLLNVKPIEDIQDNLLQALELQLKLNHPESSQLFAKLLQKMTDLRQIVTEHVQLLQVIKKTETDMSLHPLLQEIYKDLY
T1 sequence (P19793 1-462 partner): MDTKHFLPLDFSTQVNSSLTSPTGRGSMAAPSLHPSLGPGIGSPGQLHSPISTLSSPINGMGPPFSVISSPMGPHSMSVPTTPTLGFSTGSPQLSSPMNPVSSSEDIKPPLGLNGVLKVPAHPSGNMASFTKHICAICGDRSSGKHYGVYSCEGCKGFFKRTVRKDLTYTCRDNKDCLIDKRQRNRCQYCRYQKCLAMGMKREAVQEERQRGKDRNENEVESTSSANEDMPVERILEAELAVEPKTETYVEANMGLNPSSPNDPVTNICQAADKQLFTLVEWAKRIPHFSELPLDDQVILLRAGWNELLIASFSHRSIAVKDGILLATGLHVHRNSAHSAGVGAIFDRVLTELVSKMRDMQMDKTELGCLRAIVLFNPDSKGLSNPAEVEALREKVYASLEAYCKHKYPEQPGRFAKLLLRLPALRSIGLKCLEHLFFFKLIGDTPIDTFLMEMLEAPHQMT
Nature of the assay: Transient transfection and transcription assay (luciferase reporter, U2OS cells). The note with it: 24 h treatment. On the procedure:
cDNAs for Human RXR, PPAR were obtained by RTPCR from the human liver or adipose tissues. Amplified cDNAs were cloned into pcDNA3.1 expression vector and the inserts were confirmed by sequencing. U2OS cells were cultured in McCoy's 5A with 10% heat-inactivated fetal bovine serum in a humidified 5% CO2 atmosphere at 37° C. Cells were seeded in 96-well plates the day before transfection to give a confluence of 50-80% at transfection. A total of 60 ng of DNA containing 10 ng of hRXR, 10 ng of pCMV Gal, 10 ng of nuclear receptor expression vectors and 30 ng of the corresponding reporters were cotransfected per well using FuGene6 transfection reagent according to the manufacturer's instructions. […] The final concentration of DMSO in culture medium was 0.1%. […] Luciferase activity was monitored using the luciferase assay kit according to the manufacturers instructions. Light emission was read in a Labsystems Ascent Fluoroskan reader. To measure galactosidase activity to normalize the luciferase data, 50 IL of supernatant from each transfection lysate was transferred to a new microplate. Galactosidase assays were performed in the microwell plates using a kit from Promega and read in a microplate reader. Compounds were tested in five concentrations ranging from 0.01 to 10 μM. […] The results were expressed as means (SD).

A word on the IC50: it is the midpoint of a concentration-inhibition curve. Lower therefore signals greater potency in that assay. With `CC(Cc1ccc(Oc2cc(N3CCN(C(=O)c4ccccc4)CC3)nc(N)n2)cc1)(Oc1ccccc1)C(=O)O` (stereo not shown) [Compound 21, 3-{4-[2-Amino-6-(4-benzoyl-piperazin-1-yl)-pyrimidin-4-yloxy]-phenyl}-2-methyl-2-phenoxy-propionic acid], the IC50 in the assay with SPC-A1, in the assay with T24, with HepG2 and with MCF-7 was greater than 50 µM each time.
For orientation: EC50 means the concentration giving half of the maximal effect. In turn, `CC(Cc1ccc(Oc2cc(N3CCN(Cc4ccccc4)CC3)nc(N)n2)cc1)(Oc1ccc(C(F)(F)F)cc1)C(=O)O` (stereo not shown) [Compound 32, 3-{4-[2-Amino-6-(4-benzyl-piperazin-1-yl)-pyrimidin-4-yloxy]-phenyl}-2-methyl-2-(4-trifluoromethyl-phenoxy)-propionic acid] gave a concentration for a half-maximal effect (EC50) on PPAR-γ of 2.24 µM. The IC50 in the assay on SPC-A1 worked out at 28 µM; in the assay with T24, 37.7 µM; in the assay with HepG2 it was 30 µM; in the assay on MCF-7, 34.2 µM.
Turning to `CC(Cc1ccc(Oc2cc(N3CCN(Cc4cccc(C#N)c4)CC3)nc(N)n2)cc1)(Oc1ccccc1)C(=O)O` (stereo not shown) [Compound 26, 3-{4-{2-Amino-6-[4-(3-cyano-benzyl)-piperazin-1-yl]-pyrimidin-4-yloxy}-phenyl}-2-methyl-2-phe noxy-propionic acid], the IC50 was found to be 37.7 µM with SPC-A1, 38.8 µM with T24, 35.6 µM in the assay on HepG2 and 23.3 µM in the assay on MCF-7.
At PPAR-γ, `CC(Cc1ccc(Oc2cc(N3CCN(c4ccccc4)CC3)nc(N)n2)cc1)(Oc1ccccc1)C(=O)O` (stereo not shown) [Compound 22, 3-{4-[2-Amino-6-(4-phenyl-piperazin-1-yl)-pyrimidin-4-yloxy]-phenyl}-2-methyl-2-phenoxy-propionic acid] displayed an EC50 of 4.68 µM. Further, the IC50 in the assay with SPC-A1 is 32.5 µM; in the assay with T24 it was 22.6 µM; in the assay on HepG2 it was 29.7 µM.
The compound `C[C@@](Cc1ccc(Oc2cc(N3CCN(Cc4ccccc4)CC3)nc(N)n2)cc1)(Oc1ccccc1)C(=O)O` (stereo in doubt) [Compound 4, R-3-{4-[2-Amino-6-(4-benzyl-piperazin-1-yl)-pyrimidin-4-yloxy]-phenyl}-2-methyl-2-phenoxy-propionic acid] had an EC50 at PPAR-γ of 5.75 µM.
As to `Cc1cccc(CN2CCN(c3cc(Oc4ccc(CC(C)(Oc5ccccc5)C(=O)O)cc4)nc(N)n3)CC2)c1` (stereo not shown) [Compound 9, 3-{4-{2-Amino-6-[4-(3-methyl-benzyl)-piperazin-1-yl]-pyrimidin-4-yloxy}-phenyl}-2-methyl-2-phenoxy-propionic acid], on PPAR-γ, the EC50 is 4.17 µM. In addition, the half-maximal inhibitory concentration (IC50) with SPC-A1 was 48.9 µM; in the assay with T24 it was greater than 50 µM; with HepG2 it was greater than 50 µM; in the assay on MCF-7, 38 µM.
As for `CC(Cc1ccc(Oc2cc(N3CCN(Cc4ccco4)CC3)nc(N)n2)cc1)(Oc1ccccc1)C(=O)O` (stereo not shown) [Compound 37, 3-{4-[2-Amino-6-(4-furan-2-ylmethyl-piperazin-1-yl)-pyrimidin-4-yloxy]phenyl}-2-methyl-2-phenoxy-propionic acid], the EC50 on PPAR-γ was found to be 3.89 µM. Further, the IC50 in the assay on SPC-A1 is 37.6 µM; in the assay with T24, 40.6 µM; in the assay with HepG2, greater than 50 µM; with MCF-7, 47.6 µM.
For `C[C@@](Cc1ccc(Oc2cc(N3CCN(Cc4ccccc4)CC3)nc(N)n2)cc1)(Oc1ccccc1)C(=O)O` [Compound 3, S-3-{4-[2-Amino-6-(4-benzyl-piperazin-1-yl)-pyrimidin-4-yloxy]-phenyl}-2-methyl-2-phenoxy-propionic acid], the EC50 at PPAR-γ worked out at 3.31 µM.
In turn, `CC(Cc1ccc(Oc2cc(N3CCN(Cc4ccc(C(C)(C)C)cc4)CC3)nc(N)n2)cc1)(Oc1ccccc1)C(=O)O` (stereo not shown) [Compound 14, 3-{4-{2-Amino-6-[4-(4-tert-butyl-benzyl)-piperazin-1-yl]-pyrimidin-4-yloxy}-phenyl}-2-methyl-2-phenoxy-propionic acid] had an EC50 on PPAR-γ of 6.03 µM. Also, the IC50 in the assay on SPC-A1 was 8.6 µM; with T24, 12.5 µM; in the assay on HepG2, 26.5 µM; with MCF-7 it was 7.9 µM.
`CC(Cc1ccc(Oc2cc(N3CCN(Cc4ccccn4)CC3)nc(N)n2)cc1)(Oc1ccccc1)C(=O)O` (stereo not shown) [Compound 36, 3-{4-[2-Amino-6-(4-pyridin-2-ylmethyl-piperazin-1-yl)-pyrimidin-4-yloxy]-phenyl}-2-methyl-2-phenoxy-propionic acid]: the IC50 with SPC-A1, with T24, in the assay with HepG2 and with MCF-7 was greater than 50 µM in each case.
For the compound `CC(Cc1ccc(Oc2cc(N3CCN(Cc4ccccc4)CC3)nc(N)n2)cc1)(Oc1ccc(-c2ccccc2)cc1)C(=O)O` (stereo not shown) [Compound 29, 3-{4-[2-Amino-6-(4-benzyl-piperazin-1-yl)-pyrimidin-4-yloxy]-phenyl}-2-(biphenyl-4-yloxy)-2-methyl-propionic acid], the EC50 at PPAR-γ came to 2.57 µM. Besides, the half-inhibitory concentration (IC50) in the assay with SPC-A1 was 34.1 µM; in the assay with T24, 40 µM; in the assay on HepG2, greater than 50 µM; with MCF-7 it was greater than 50 µM.
At PPAR-γ, `CC(Cc1ccc(Oc2cc(N3CCN(CC4CCCCC4)CC3)nc(N)n2)cc1)(Oc1ccccc1)C(=O)O` (stereo not shown) [Compound 27, 3-{4-[2-Amino-6-(4-cyclohexylmethyl-piperazin-1-yl)-pyrimidin-4-yloxy]-phenyl}-2-methyl-2-phenoxy-propionic acid] gave an EC50 of 5.37 µM. The IC50 was greater than 50 µM with SPC-A1, greater than 50 µM with T24, 44.5 µM in the assay with HepG2 and greater than 50 µM in the assay with MCF-7.
In turn, `CC(Cc1ccc(Oc2cc(N3CCN(c4ncccn4)CC3)nc(N)n2)cc1)(Oc1ccccc1)C(=O)O` (stereo not shown) [Compound 20, 3-{4-[2-Amino-6-(4-pyrimidin-2-yl-piperazin-1-yl)-pyrimidin-4-yloxy]-phenyl}-2-methyl-2-phenoxy-propionic acid] had an EC50 at PPAR-γ of 5.89 µM. For the same compound, the IC50 in the assay with SPC-A1 was determined as 29.1 µM; in the assay on T24 it was 20.1 µM; in the assay with HepG2 it was 32.6 µM; in the assay on MCF-7, 35.7 µM.
For the compound `COc1ccccc1C(=O)N1CCN(c2cc(Oc3ccc(CC(C)(Oc4ccccc4)C(=O)O)cc3)nc(N)n2)CC1` (stereo not shown) [Compound 25, 3-{4-{2-Amino-6-[4-(2-methoxy-benzoyl)-piperazin-1-yl]-pyrimidin-4-yloxy}-phenyl}-2-methyl-2-phenoxy-propionic acid], the IC50 in the assay with SPC-A1, in the assay on T24, in the assay on HepG2 and in the assay with MCF-7 was greater than 50 µM each time.
For the compound `CCCc1ccc(C(=O)N2CCN(c3cc(Oc4ccc(CC(C)(Oc5ccccc5)C(=O)O)cc4)nc(N)n3)CC2)cc1` (stereo not shown) [Compound 24, 3-{4-{2-Amino-6-[4-(4-propyl-benzoyl)-piperazin-1-yl]-pyrimidin-4-yloxy}-phenyl}-2-methyl-2-phenoxy-propionic acid], the IC50 in the assay on SPC-A1 was 43.7 µM; in the assay with T24 it was 39.4 µM; in the assay on HepG2, greater than 50 µM; in the assay on MCF-7 it was 38.2 µM.
